According to US4766122A, “Cyanoamidine compounds and derivatives thereof” (Smith Kline & French Laboratories Limited, priority 1985, dated 1988):

How the values were obtained:
[1] = tested on: left ventricular dp/dt max (left ventricular contractility); assay: Cardiac stimulant activity in vivo: left ventricular dp/dt max in anaesthetised cats; parameters: species or system cat; details: anaesthetised cats pretreated with pempidine and propranolol, intravenous
[2] = tested on: guinea pig right ventricular strips; assay: Cardiac stimulant activity in vitro: increase in force of contraction of electrically stimulated ventricular strips; details: Cavia porcellus, read-out: EC50 (50% increase in the force of contraction of the ventricular strips); 37° C., stimulated at 1.0 Hz, cumulative concentration response
Description: The compounds of formula (I) and their pharmaceutically acceptable salts are tested for cardiac stimulant activity following a procedure based on that of S.C. Verma and J. H. McNeill (J. Pharm & Exp. Therapeutics, 200, 352-362 (1977)). Guinea pigs (500-700 g) of either sex are sacrificed and the hearts are quickly removed and transferred to a dissecting dish containing oxygenated bathing fluid. While in the bathing medium, the right ventricle is cut into two strips. The strips are each suspended in a 50 ml bath containing Krebs Henseleit solution at 37° C., and the bath is bubbled with 95% oxygen and 5% carbon dioxide. The ventricular strips are electrically stimulated at a frequency of 1.0 Hz, at double the threshold voltage. A resting tension of 1.0 g is applied to the strips and the tension is kept constant by readjustment during an equilibration period of 60 minutes. The bathing fluid is frequently changed during this period. When a steady base line is obtained, a compound under test is added to the bathing fluid and a cumulative concentration response curve is plotted.

[3] = tested on: PDE (Peak III); assay: Inhibition of PDE (Peak III) from cat heart; format: biochemical; details: read-out: IC50 (50% inhibition of PDE (Peak III) activity); 1 μM cyclic AMP, 37°, pH 7.5
Description: (§1) There were three major peaks which had the following characteristics:
(§2) The enzyme was assayed by incubation at 37° for 4-30 min in 50 mM Tris, 5 mM MgCl2, pH 7.5 with [3-H]cyclic nucleotide (4×10^5 disintegrations min^-1) and [14-C]nucleotide 5' monophosphate (3×10^3 disintegrations min^-1). […] The reaction mixture was diluted with 0.5 ml 100 mM HEPES (N-2-Hydroxyethyl-piperazine-N'-2-ethanesulfonic acid), 100 mM NaCl, pH 8.5, and applied to the column. […] The recovery of product as judged by [14-C]recovery was approximately 80%. All assays were linear with time of incubation and concentration of enzyme over the range used in these experiments.

[4] = tested on: PDE (Peak I); assay: Substrate kinetics of PDE (Peak I) from cat heart; format: biochemical
[5] = tested on: PDE (Peak II); details: eluted at 0.3 M Na acetate
Description: as §1, §2

[6] = tested on: PDE (Peak III); details: eluted at 0.5 M Na acetate
Description: as §1, §2

Structure (SMILES) | duration of activity [1] | EC50 [2] [nM] | ED50 ([1]; Felis catus, read-out: ED50 (dose to increase left ventricular dp/dt max by 50%)) [µmol/kg] | IC50 [3] [nM] | Relative Vmax ([4]; 50 μg/ml calmodulin added) | Relative Vmax ([4]; without 50 μg/ml calmodulin) | Km [5] [µM] | Relative Vmax [5] | Km [6] [µM] | Relative Vmax [6]
Nc1cc(-c2ccncc2)c[nH]c1=O [Amrinone] | short duration of activity |  |  |  |  |  |  |  |  | 
CCC(=NC#N)Nc1ccc(C2=NNC(=O)CC2C)cc1 (centres unmarked) [Example 1, 6-[4-(N^2 -Cyanopropanimidamido)phenyl]-5-methyl-4,5-dihydro-3(2H)-pyridazinone] | long duration of activity | 65 | 0.02 | 80 |  |  |  |  |  | 
Nc1nc2c(ncn2[C@@H]2O[C@@H]3COP(=O)(O)O[C@H]3[C@H]2O)c(=O)[nH]1 [cyclic GMP] |  |  |  |  | 7.2 | 1.1 | 28 | 0.2 | 2.9 | 0.4
